Reference: patent US8835644B2, “Broad spectrum benzothiophene-nitrothiazolide and other antimicrobials” (University of Virginia Patent Foundation, priority 2009, dated 2014)
Converted amounts (≈) assume the structure as drawn. Where two headings read alike, the source gives them in different places.

Experiments:
[1] = test system: S. aureus and S. epidermidis strains; assay: MIC by microdilution in TSB, staphylococcal strains; type: cell-based, Staphylococcus epidermidis; details: Staphylococcus aureus; staphylococcal strains incl. MRSA S. aureus, microdilution in TSB; read-out: MIC
Protocol: Minimal inhibitory concentration testing of NTZ was done in sterile round bottom 96 well microtiter polystyrene plates (Corning Inc., Corning, N.Y.) by microdilution. Tizoxanide TIZ (deacetylated form of NTZ), denitro-NTZ (TIZ without 5-nitro group) and amoxanide AMIX (TIZ-ethylamine) were also tested. Bacteria were grown overnight and suspended in fresh TSB to an OD600 of 0.01 and 100 μl were dispensed into wells with the first well containing 200 μA NTZ and other antibiotics (DMSO control) were added to well one and serially diluted from 32 μg/ml. All compounds were tested in triplicate and plates were read visually or with a plate reader (Molecular Devices) at 8, 12 and at 24 h. MIC was determined as the first well in which no visible bacterial growth was noted relative to controls. Drug effects on aerobic growth were determined in 125 ml flasks containing 25 ml of TSB medium and following inoculation (detailed above), flasks were on a gyrorotary shaker (200 rpm) at 37° C. Final concentrations of NTZ were 0, 10 and 25 μg/ml and samples were removed at hourly intervals and absorbance determined at 600 nm.

Solubility in water = type: physicochemical; details: water
C. jejuni = assay: MIC testing by broth dilution, C. jejuni; type: cell-based, Campylobacter jejuni
Method in brief: (§1)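 Values are broth-dilution MICs, defined as the well showing no growth on visual reading after 24 h; the tested range was 32 to 0.06 μg/ml, in organism-specific media (LB, Trypticase Soy, Brain Heart Infusion). The C. difficile entries come instead from anaerobic Kirby-Bauer disk zones, normalised to NTZ.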

MRSA = assay: MIC testing by broth dilution, MRSA; type: cell-based, Staphylococcus aureus
Method in brief: as §1

[2] = reference (9); cited from earlier work
[3] = test system: EAEC JM221 (Type 1 fimbriae); assay: Hemagglutination of guinea pig erythrocytes, EAEC JM221; type: cell-based, Escherichia coli; details: EAEC JM221 grown statically in LB 48 h with 20 μg/ml NTZ; also: key: +++ = strong hemagglutination reaction; + weak; − no hemagglutination
Protocol: HA assays were performed in 96-well microplates as described in (1). Bacteria grown over night without shaking (MinA-G medium with and without 25 μg/ml NTZ) were suspended in PBS and diluted to OD660 of […] was mixed with an equal volume of 3% (vol/vol) sheep erythrocyte suspension containing 1% mannose, except when type I fimbriae producing strains were assayed. In the latter, bacteria were grown statically in LB medium (with and without NTZ) for 48 h and HA was determined with guinea pig erythrocytes. HA reactions were incubated at 4° C. for […] HA was determined visually against controls receiving no NTZ. All assays were prepared in triplicate and repeated twice.

[4] = test system: PFOR (pyruvate ferredoxin oxidoreductase); assay: Direct PFOR enzyme assay; type: biochemical
EAEC = assay: Motility in soft agar; type: cell-based, Escherichia coli; details: concentrations that inhibited biofilm formation
Protocol: EAEC strains were grown overnight in MinA-G medium at 37° C. with shaking and used to inoculate fresh MinA-G medium containing a range of NTZ concentrations (0, 5, 10, 15, 20, and 25 μg/ml) to a starting OD600 of 0.1. Growth was recorded as the absorbance at 600 nm at 30-minute intervals over a period of eight hours. […] Motility was assessed in LB soft agar (0.3% agar) containing 0 to 25 μg/ml of NTZ. The diameter of outward spreading was measured daily and inhibition computed as percent of control.

**Q.** For `CC(=O)Oc1ccccc1C(=O)Nc1ncc([N+](=O)[O-])s1` [Nitazoxanide, 2-(acetyloxy)-N-(5-nitro-2-thiazolyl)benzamide, reference compound], which MIC [1] is on record?
**A.** 8 to 16 µg/mL (≈ 26 to 52.1 µM)

**Q.** What about the solubility (Solubility in water) of the same compound?
**A.** < 32 µg/mL

**Q.** What about the MIC (C. jejuni; 2-amino-3,5-dinitrothiophene analogues table, read-out: MIC C. jejuni) of the same compound?
**A.** 39.1 µM (≈ 12 µg/mL)

**Q.** What about the MIC (C. jejuni; Campylobacter jejuni, Furan analogues table, read-out: MIC C. jejuni) of the same compound?
**A.** 39.1 µM (≈ 12 µg/mL)

**Q.** What about the MIC (C. jejuni; Campylobacter jejuni, broth dilution, Brain Heart Infusion, 24 h, read-out: MIC (μM) C. jejuni) of the same compound?
**A.** 39.1 µM (≈ 12 µg/mL)

**Q.** What about the MIC (C. jejuni; Thiophene analogues table, read-out: MIC C. jejuni) of the same compound?
**A.** 39.1 µM (≈ 12 µg/mL)

**Q.** And the MIC (MRSA; 2-amino-3,5-dinitrothiophene analogues table, read-out: MIC MRSA)?
**A.** 39.1 µM (≈ 12 µg/mL)

**Q.** And the MIC (MRSA; Staphylococcus aureus, MRSA, broth dilution, Trypticase Soy, 24 h, read-out: MIC (μM) MRSA)?
**A.** 39.1 µM (≈ 12 µg/mL)

**Q.** What about the MIC (MRSA; Thiophene analogues table, read-out: MIC MRSA) of the same compound?
**A.** 39.1 µM (≈ 12 µg/mL)

**Q.** What about the pKa [2] of the same compound?
**A.** 6.2

**Q.** And the “HA (guinea pig erythrocytes), bacterial OD660 0.5” value [3]?
**A.** −

**Q.** What about the “HA (guinea pig erythrocytes), bacterial OD660 1.0” value [3] of the same compound?
**A.** −

**Q.** And the “HA (guinea pig erythrocytes), bacterial OD660 1.5” value [3]?
**A.** +

**Q.** And the “PFOR inhibition relative to nitazoxanide (=100)” value [4]?
**A.** 100%

**Q.** What about the “PFOR inhibition relative to nitazoxanide (=100)” value ([4]; * biphasic initial inhibition followed by uninhibited rate, ** caused some precipitant in extract) of the same compound?
**A.** 100%

**Q.** What about the “PFOR inhibition relative to nitazoxanide (=100)” value ([4]; Furan analogues table) of the same compound?
**A.** 100%

**Q.** What about the “PFOR inhibition relative to nitazoxanide (=100)” value ([4]; Thiophene analogues table) of the same compound?
**A.** 100%

**Q.** And the “Effect on swarming motility in soft agar” value (EAEC)?
**A.** no effect
